Results on one compound are retold here after paper PMC11562385 (RSC Chemical Biology, 2024).

Molecules are shown by their SMILES. Peptide text beside a SMILES is read from it.

The nature of this series: Variable-temperature CD melting curves (CD-melts at 228±2 nm and 202±2 nm), individual and global two-state fits. The format is physicochemical. In a few lines:
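Far-UV CD melts (0 to 95 °C) at 15-120 µM peptide in 15 mM phosphate buffer, concentration set by Trp/Tyr absorbance at 280 nm; CD-exciton intensity taken as %-folding probe. Melting curves fitted individually and globally to a two-state model.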

The mark [1] stands for this setting: xlsx sheet of the peptide, individual fit of CD-melt.

Under “CD-melt at 228±2 nm, individual two-state Gibbs-Helmholtz fit (Origin 9.0), 0-95 °C, phosphate buffer 15 mM pH 6.5 ± MeOH”, `CSCC[C@H](NC(=O)[C@H](CC(=O)O)NC(=O)[C@H](Cc1ccccc1)NC(=O)[C@H](CCCNC(=N)N)NC(=O)[C@H](Cc1ccc(O)cc1)NC(=O)[C@H](CC(=O)O)NC(=O)[C@H](CCCNC(=N)N)NC(=O)[C@H](CCCNC(=N)N)NC(=O)[C@H](C)NC(=O)[C@@H](NC(=O)[C@H](Cc1c[nH]c2ccccc12)NC(=O)[C@@H](N)CCCNC(=N)N)C(C)C)C(=O)NCC(=O)N[C@@H](Cc1ccccc1)C(=O)N[C@@H](CC(=O)O)C(=O)N[C@@H](Cc1ccc(O)cc1)C(=O)N[C@@H](Cc1c[nH]c2ccccc12)C(=O)N[C@H](C(=O)N[C@@H](Cc1c[nH]c2ccccc12)C(=O)N[C@@H](CCC(=O)O)C(=O)O)C(C)C` [2c] (H-RWVARRDYRFDMGFDYWVWE-OH) had a ΔGF0 of -1.26 ± 0.01 kcal/mol. Also, the “Hairpin %-fold 291K” value (Table S5, individual fit, 291 K) is given as 93 ± 1%. Besides, the “Hairpin %-fold 310K” value (Table S5, individual fit, 310 K) was determined as 77 ± 1%. In addition, where the note is “as E16”, the “-TΔSF0” value worked out at 12.4 ± 0.2 kcal/mol, the ΔCpF0 is on record as -29 ± 7 cal.deg-1.mol-1 and the ΔHF0 was -13.6 ± 0.2 kcal/mol. The VT-CD %-fold (folded fraction (χF) at 25 °C from CD-melts, (R) regular / (B) bulged fold, phosphate buffer 15 mM pH 6.5, up to 20% MeOH) is 93% (B). Also, under “global fit (shared maximum molar ellipticity), 228 nm”, the “Tm 228 nm Glob.” value was 48.0 oC. Further, where the note is “global fit, 202 nm”, the “Tm 202 nm Glob.” value is on record as 67.5 oC. For the setting “global fit, 202 nm, 291 K”, the “χF (291 K) 202 nm Glob.” value turned out to be 97%. In addition, the “χF (291 K) 228 nm Glob.” value (global fit, 228 nm, 291 K) turned out to be 63%. Also, under “individual fit, 202 nm, 291 K”, the “χF (291 K) 202 nm Indiv.” value was found to be 73%. Under “individual fit, 228 nm, 291 K”, the “χF (291 K) 228 nm Indiv.” value is 56%. For the same compound, for the setting “individual fit, exciton band 228 nm”, the “Tm 228 nm Indiv.” value is 36.7 oC. The “Tm 202 nm Indiv.” value (individual fit, β-bulge band 202 nm) amounted to 62.2 oC. The “VT-CD Tm (°C)” value (melting temperature from CD-melts, phosphate buffer 15 mM pH 6.5, up to 20% MeOH) was 54 °C. Besides, under setting [1], the “DHm, fitted value from OriginPro” value was -14.4955 kcal/mol and the “Tm, fitted value from OriginPro” value stood at 327.29 K.
